Assay type in all cases: cell-based
One assay has as its system FAK. As to the kind of experiment: Localization of FAK, immunofluorescence (FIG. 13). The following applies: versus DMSO+TGF (5 ng/ml) control. How it is done: FIG. 13 presents in photomicrographs a comparison between an illustrative cancer in which the treatment involved using DMSO+TGF (5 ng/ml) as a control and the illustrative cancer cell in which the in vitro treatment involved using a compound according to a formulae (1), (2) or (3) herein+TGF (5 ng/ml). The block of four photomicrographs on the left is for the control. […] Inability to co-localize would inhibit the downstream modifications of FAK reported as needed for migration.
As to FIGS. 12 and 13, cells were grown to almost 80% confluency and then serum starved for 24 hours. Then treated with the representative compound SD 29-14 for additional 24 h. No TGFbeta1 was used in this assay. After 24 h, cells were prepared for the immunofluorescence imaging essentially with the same procedure as described for FIG. 9. The antibody for the FAK was purchased from GeneTex (Irvine, CA). The secondary was rabbit TRITC. The primary RACK1 antibody coupled with a FITC reporter was purchased from Santa Cruz Biotechnology (Dallas, TX).

Assay [1] has as its system RACK1 / LamB1 co-localization. Description: Co-localization of RACK1 with ECM protein LamB1, immunofluorescence (FIG. 11). The note with it: U251 cells, TGFbeta1, 72 h. The source says:
For effective migration, cell adhesion to the ECM is necessary and cell surface localized integrin molecules (alpha and beta) act as a link between the ECM and cell interior by acting as a receptor of the ECM proteins and linking ECM to the intracellular cytoskeleton complex. It is known that RACK1 acts as an integrin binding protein (Hermanto et al., 2002) and interaction between RACK1 and β1 integrin has been reported to mediate cancer cell invasion as reported in prostate cancer invasion and metastasis (Trerotola et al., 2012). RACK1 can promote tumor cell migration by using its scaffolding ability to bridge together different signaling proteins that integrate signaling from receptors cytoskeleton reorganization pathways. Laminin being a major ECM protein can therefor interact with integrins for cell adhesion and in this regard is expected to modulate by the RACK1 proteins scaffolding ability as discussed above. […] Lack of colocalization indicate that the link between the ECM proteins and intracellular cytoskeleton complex are interrupted and as such inhibiting this complex mediated migration signaling pathways.
As to FIG. 11, and methods of Immunofluorescence and confocal microscopy, U251 cells were grown to about 80% confluency in 12 well plate on glass cover slips and the cells were co-treated with the TGFb and indicated compounds for 72 h. […]

A further assay relates to U251 cells. Description: Filipodia/lamellipodia development of TGF-induced cells on Matrigel, Giemsa stain (FIG. 2, FIG. 4). How it is done: After incubation, media and matrigels were carefully removed and adherent cells were washed three times with 1×PBS; to visualize cells, cells were incubated with Giemsa Stain (Sigma-Aldrich) (1:20 with water) for 10 minutes, washed in water until no blue color rinsed out from the well images under a Zeiss Compound microscope.
It is shown in the FIG. 2 and FIG. 3 that 100 uM of SD 29-14 is effective in inhibiting the migration potential of the two different representative cancer cell lines, which establishes this drug as a candidate anti-metastasis drug for treating against cancers where a role of RACK1 upregulation is or has been shown in the metastasis process. There are many reviews on the RACK1 protein the cancer cell migration (e.g., Li and Xie, 2015; Duff and Long, 2017, among others).
Efficacy for inhibiting migration at a lower concentration of a representative compound was also investigated. Cancer cell lines were treated under conditions as used above for FIG. 2 and FIG. 3 but with both 10 μM and 100 μM SD29-14.

Another assay concerns pY397-FAK. As to the kind of experiment: pY397-FAK expression, immunofluorescence (FIG. 14). The following applies: MCF7 cells, 96 h, 5 ng/ml TGF-beta. The source says: As to FIGS. 14 and 15, in order to evaluate the effect of a representative compound (SD 29-14) as a drug for inducing functional inactivation of RACK1 on the FAK phosphorylation, the drug was used in testing with breast cancer cells (MCF7, FIG. 14) and with glioblastoma cancer cells (U251, FIG. 15). In this immunofluorescence experiment, the pY397-FAK expressing cells were stained with FITC tagged secondary antibody (green) and RACK1 was stained with TRITC tagged secondary antibody (red). Here 5 ng/ml TGFbeta was used to induce cell migration. […] As discussed above, without the pY397-FAK present, the connection between the ECM and cell interiors will be disrupted which will inhibit the cell's potential to migrate by initiating the cell's adhesion to the ECM.
As to FIGS. 14 and 15, and the methods, the immunofluorescence experiments are essentially same as described with reference to FIG. 9 with a slight modification in the duration of the drug treatment. The cancer cells (MCF7 or U251) were incubated with a drug (SD 29-14) or with DMSO (left panel) for 96 h in the presence of 5 ng/ml TGF-beta. After indicated incubation period, the cells were fixed and stained with antibody as described for FIG. 9 methods.

The structures appear in SMILES notation.

We go through 1 compound from US12629355B2, “Drug inhibitor against migration and invasion of cancer cells and methods of treating against metastasis of cancer cells” (HOWARD UNIVERSITY, priority 2019, dated 2026).

Take `Nn1c(S)nnc1-c1cc(Cl)cc(Cl)c1` [SD 29-14]: the “localization of FAK” value in the assay on FAK is listed as “blocks localization of FAK”. The “co-localization of RACK1 and Lamb1 at the cell surface” value in assay [1] is “this interaction was absent”. In addition, the “efficacy to inhibit filipodia and lamellipodia development” value in the assay with U251 cells (10 μM, 72 h grown (FIG. 4)) was “maintained”. The “filipodia and lamellipodia development” value in the assay with U251 cells (100 uM, TGF on Matrigel, 48 h treated then 20 h on Matrigel) is “inhibition of the filipodia and lamellipodia development”. Also, the “expression of pY397-FAK at the cell protrusions” value with pY397-FAK is “almost completely inhibited”.
